Source: paper PMC4685510, “A Cell Biologist’s Field Guide to Aurora Kinase Inhibitors” (Frontiers in Oncology, 2015)

How the values were obtained:
Test in all cases: biochemical
Format in all cases: biochemical
[1] = target: 363 human kinases (including Aurora A/B/C) (Homo sapiens, UniProt P05129); conditions: PKCg; for remaining activity at 0.1 µM: 100 nM; for remaining activity at 0.1 µM / remaining activity at 0.5 µM: read-out: % Enzyme Activity (relative to DMSO controls)
Excerpt: (§1) However, the Aurora A/B selectivity ratios derived from our in vitro and in vivo data can be compared to prioritize inhibitors.

[2] = target: 363 human kinases (including Aurora A/B/C) (Homo sapiens, UniProt P07332); conditions: FES/FPS, [ATP] 50 µM; for remaining activity at 0.1 µM: 100 nM; for remaining activity at 0.1 µM / remaining activity at 0.5 µM: read-out: % Enzyme Activity (relative to DMSO controls)
Excerpt: as §1

[3] = target: 363 human kinases (including Aurora A/B/C) (Homo sapiens, UniProt P09619); conditions: PDGFRb; for remaining activity at 0.1 µM: 100 nM; for remaining activity at 0.1 µM / remaining activity at 0.5 µM: read-out: % Enzyme Activity (relative to DMSO controls)
Excerpt: as §1

[4] = target: 363 human kinases (including Aurora A/B/C) (Homo sapiens, UniProt P32298); conditions: GRK4; for remaining activity at 0.1 µM: 100 nM; for remaining activity at 0.1 µM / remaining activity at 0.5 µM: read-out: % Enzyme Activity (relative to DMSO controls)
Excerpt: as §1

[5] = target: 363 human kinases (including Aurora A/B/C) (Homo sapiens, UniProt P45983); conditions: JNK1; for remaining activity at 0.1 µM: 100 nM; for remaining activity at 0.1 µM / remaining activity at 0.5 µM: read-out: % Enzyme Activity (relative to DMSO controls)
Excerpt: as §1

[6] = target: 363 human kinases (including Aurora A/B/C) (Homo sapiens, UniProt P53350); conditions: PLK1; for remaining activity at 0.1 µM: 100 nM; for remaining activity at 0.1 µM / remaining activity at 0.5 µM: read-out: % Enzyme Activity (relative to DMSO controls)
Excerpt: as §1

[7] = target: 363 human kinases (including Aurora A/B/C) (Homo sapiens, UniProt Q07912); conditions: ACK1, [ATP] 100 µM; for remaining activity at 0.1 µM: 100 nM; for remaining activity at 0.1 µM / remaining activity at 0.5 µM: read-out: % Enzyme Activity (relative to DMSO controls)
Excerpt: as §1

[8] = target: 363 human kinases (including Aurora A/B/C) (Homo sapiens, UniProt Q16512); conditions: PKN1/PRK1; for remaining activity at 0.1 µM: 100 nM; for remaining activity at 0.1 µM / remaining activity at 0.5 µM: read-out: % Enzyme Activity (relative to DMSO controls)
Excerpt: as §1

[9] = target: T1, 363 human kinases (including Aurora A/B/C) (Homo sapiens, UniProt Q16832); conditions: DDR2, [ATP] 5 µM; for remaining activity at 0.1 µM: 100 nM; for remaining activity at 0.1 µM / remaining activity at 0.5 µM: read-out: % Enzyme Activity (relative to DMSO controls)
T1 sequence (Q16832 22-855): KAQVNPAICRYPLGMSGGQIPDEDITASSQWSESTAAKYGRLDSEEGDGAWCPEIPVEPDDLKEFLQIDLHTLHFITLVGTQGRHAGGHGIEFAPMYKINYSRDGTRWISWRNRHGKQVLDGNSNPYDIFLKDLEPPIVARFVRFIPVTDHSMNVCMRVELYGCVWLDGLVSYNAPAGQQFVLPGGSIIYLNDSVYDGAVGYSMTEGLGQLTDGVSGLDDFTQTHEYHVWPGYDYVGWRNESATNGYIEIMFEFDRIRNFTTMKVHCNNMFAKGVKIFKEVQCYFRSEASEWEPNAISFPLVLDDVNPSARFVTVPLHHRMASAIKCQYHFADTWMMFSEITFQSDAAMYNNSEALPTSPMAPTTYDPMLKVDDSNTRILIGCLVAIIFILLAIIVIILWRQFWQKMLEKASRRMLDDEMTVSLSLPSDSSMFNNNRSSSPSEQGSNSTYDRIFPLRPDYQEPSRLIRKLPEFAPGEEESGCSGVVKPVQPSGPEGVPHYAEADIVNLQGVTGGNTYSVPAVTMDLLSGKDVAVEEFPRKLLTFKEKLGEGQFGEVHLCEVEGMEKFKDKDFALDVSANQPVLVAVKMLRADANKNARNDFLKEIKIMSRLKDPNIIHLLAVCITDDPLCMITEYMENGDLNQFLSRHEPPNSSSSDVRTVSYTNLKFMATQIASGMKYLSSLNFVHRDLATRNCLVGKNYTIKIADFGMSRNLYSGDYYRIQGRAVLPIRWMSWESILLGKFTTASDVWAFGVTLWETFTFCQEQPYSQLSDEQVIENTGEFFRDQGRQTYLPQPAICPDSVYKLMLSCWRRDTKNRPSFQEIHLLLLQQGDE
Excerpt: as §1

[10] = target: 363 human kinases (including Aurora A/B/C) (Homo sapiens, UniProt Q6IQ55); conditions: TTBK2; for remaining activity at 0.1 µM: 100 nM; for remaining activity at 0.1 µM / remaining activity at 0.5 µM: read-out: % Enzyme Activity (relative to DMSO controls)
Excerpt: as §1

[11] = target: T2, 363 human kinases (including Aurora A/B/C) (Homo sapiens, UniProt Q7L7X3); conditions: TAOK1; for remaining activity at 0.1 µM: 100 nM; for remaining activity at 0.1 µM / remaining activity at 0.5 µM: read-out: % Enzyme Activity (relative to DMSO controls)
T2 sequence (Q7L7X3 1-1001): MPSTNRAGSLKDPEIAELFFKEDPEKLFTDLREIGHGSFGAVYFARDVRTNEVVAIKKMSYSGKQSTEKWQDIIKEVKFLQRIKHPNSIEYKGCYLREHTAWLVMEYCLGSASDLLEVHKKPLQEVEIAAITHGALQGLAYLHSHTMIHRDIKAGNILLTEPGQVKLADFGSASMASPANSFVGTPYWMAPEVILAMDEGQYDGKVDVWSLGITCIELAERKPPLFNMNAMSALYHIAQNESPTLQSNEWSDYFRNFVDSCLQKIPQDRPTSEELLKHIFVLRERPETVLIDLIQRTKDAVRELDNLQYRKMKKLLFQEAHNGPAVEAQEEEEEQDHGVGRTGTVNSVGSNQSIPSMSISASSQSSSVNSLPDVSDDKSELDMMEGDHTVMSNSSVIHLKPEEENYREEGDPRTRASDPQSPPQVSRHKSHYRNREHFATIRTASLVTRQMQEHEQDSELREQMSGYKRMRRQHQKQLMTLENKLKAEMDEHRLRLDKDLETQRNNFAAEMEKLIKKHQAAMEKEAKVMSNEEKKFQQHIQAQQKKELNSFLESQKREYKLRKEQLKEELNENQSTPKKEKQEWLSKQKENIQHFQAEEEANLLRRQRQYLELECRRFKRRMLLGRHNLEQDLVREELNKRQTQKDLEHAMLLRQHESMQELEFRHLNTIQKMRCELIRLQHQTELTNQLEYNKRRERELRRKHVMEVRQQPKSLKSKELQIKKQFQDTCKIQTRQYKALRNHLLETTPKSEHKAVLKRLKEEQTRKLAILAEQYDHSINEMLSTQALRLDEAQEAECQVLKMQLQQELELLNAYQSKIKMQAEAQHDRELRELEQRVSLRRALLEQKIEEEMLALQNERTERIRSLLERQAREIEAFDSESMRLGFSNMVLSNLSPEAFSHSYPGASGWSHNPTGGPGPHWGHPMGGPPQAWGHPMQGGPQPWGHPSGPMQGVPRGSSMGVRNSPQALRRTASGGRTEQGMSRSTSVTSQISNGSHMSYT
Excerpt: as §1

[12] = target: 363 human kinases (including Aurora A/B/C) (Homo sapiens, UniProt Q8N5S9); conditions: CAMKK1, [ATP] 5 µM; for remaining activity at 0.1 µM: 100 nM; for remaining activity at 0.1 µM / remaining activity at 0.5 µM: read-out: % Enzyme Activity (relative to DMSO controls)
Excerpt: as §1

[13] = target: 363 human kinases (including Aurora A/B/C) (Homo sapiens, UniProt Q9NQU5); conditions: PAK6; for remaining activity at 0.1 µM: 100 nM; for remaining activity at 0.1 µM / remaining activity at 0.5 µM: read-out: % Enzyme Activity (relative to DMSO controls)
Sequence of 363 human kinases (including Aurora A/B/C) (Homo sapiens, UniProt Q9NQU5) (Q9NQU5 whole entry): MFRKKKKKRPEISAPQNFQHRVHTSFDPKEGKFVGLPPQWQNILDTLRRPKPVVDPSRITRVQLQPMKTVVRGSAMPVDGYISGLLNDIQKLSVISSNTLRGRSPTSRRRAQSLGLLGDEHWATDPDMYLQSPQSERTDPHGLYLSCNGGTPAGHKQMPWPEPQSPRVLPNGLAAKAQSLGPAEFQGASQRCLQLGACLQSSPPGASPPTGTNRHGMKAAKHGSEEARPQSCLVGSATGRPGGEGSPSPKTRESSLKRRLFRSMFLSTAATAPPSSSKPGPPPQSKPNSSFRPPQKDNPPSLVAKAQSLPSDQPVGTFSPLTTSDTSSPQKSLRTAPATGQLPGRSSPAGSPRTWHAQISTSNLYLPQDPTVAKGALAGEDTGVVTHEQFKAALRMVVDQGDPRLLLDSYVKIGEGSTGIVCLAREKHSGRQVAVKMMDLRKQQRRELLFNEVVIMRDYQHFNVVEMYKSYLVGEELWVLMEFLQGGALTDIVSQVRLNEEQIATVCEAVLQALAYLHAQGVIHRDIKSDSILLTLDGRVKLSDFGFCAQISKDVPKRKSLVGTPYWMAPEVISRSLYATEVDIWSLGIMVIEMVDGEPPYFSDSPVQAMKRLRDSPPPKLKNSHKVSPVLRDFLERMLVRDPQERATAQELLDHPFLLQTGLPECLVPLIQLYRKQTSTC
Excerpt: as §1

Sequence of 363 human kinases (including Aurora A/B/C) (Homo sapiens, UniProt P09619) (P09619 33-1106): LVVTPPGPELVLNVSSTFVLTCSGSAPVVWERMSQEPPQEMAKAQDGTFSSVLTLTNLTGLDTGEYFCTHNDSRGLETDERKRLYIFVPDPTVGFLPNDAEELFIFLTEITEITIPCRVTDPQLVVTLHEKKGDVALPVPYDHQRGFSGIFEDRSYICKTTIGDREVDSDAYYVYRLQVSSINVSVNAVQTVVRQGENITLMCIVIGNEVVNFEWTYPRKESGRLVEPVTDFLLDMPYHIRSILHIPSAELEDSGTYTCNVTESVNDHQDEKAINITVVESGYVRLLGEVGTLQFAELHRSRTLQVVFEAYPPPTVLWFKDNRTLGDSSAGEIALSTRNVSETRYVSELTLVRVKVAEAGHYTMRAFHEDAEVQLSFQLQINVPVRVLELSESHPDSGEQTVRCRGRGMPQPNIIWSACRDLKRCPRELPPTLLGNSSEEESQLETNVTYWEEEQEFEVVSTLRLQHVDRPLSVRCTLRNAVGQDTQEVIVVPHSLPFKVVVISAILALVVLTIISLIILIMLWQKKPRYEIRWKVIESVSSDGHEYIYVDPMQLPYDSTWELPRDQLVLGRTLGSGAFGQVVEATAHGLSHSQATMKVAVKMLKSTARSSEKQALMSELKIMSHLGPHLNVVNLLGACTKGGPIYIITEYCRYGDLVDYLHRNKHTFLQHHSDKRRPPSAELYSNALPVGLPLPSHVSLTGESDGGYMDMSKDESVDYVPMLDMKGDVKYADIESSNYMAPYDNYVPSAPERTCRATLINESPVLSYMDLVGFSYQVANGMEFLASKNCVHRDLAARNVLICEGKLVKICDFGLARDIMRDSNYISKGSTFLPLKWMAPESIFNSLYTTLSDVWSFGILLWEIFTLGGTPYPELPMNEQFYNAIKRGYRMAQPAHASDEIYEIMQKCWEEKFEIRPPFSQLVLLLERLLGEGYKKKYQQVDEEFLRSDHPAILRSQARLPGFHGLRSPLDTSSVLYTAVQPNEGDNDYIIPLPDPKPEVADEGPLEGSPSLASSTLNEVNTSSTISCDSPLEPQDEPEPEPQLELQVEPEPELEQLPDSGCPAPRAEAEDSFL
Sequence of 363 human kinases (including Aurora A/B/C) (Homo sapiens, UniProt Q16512) (Q16512 whole entry): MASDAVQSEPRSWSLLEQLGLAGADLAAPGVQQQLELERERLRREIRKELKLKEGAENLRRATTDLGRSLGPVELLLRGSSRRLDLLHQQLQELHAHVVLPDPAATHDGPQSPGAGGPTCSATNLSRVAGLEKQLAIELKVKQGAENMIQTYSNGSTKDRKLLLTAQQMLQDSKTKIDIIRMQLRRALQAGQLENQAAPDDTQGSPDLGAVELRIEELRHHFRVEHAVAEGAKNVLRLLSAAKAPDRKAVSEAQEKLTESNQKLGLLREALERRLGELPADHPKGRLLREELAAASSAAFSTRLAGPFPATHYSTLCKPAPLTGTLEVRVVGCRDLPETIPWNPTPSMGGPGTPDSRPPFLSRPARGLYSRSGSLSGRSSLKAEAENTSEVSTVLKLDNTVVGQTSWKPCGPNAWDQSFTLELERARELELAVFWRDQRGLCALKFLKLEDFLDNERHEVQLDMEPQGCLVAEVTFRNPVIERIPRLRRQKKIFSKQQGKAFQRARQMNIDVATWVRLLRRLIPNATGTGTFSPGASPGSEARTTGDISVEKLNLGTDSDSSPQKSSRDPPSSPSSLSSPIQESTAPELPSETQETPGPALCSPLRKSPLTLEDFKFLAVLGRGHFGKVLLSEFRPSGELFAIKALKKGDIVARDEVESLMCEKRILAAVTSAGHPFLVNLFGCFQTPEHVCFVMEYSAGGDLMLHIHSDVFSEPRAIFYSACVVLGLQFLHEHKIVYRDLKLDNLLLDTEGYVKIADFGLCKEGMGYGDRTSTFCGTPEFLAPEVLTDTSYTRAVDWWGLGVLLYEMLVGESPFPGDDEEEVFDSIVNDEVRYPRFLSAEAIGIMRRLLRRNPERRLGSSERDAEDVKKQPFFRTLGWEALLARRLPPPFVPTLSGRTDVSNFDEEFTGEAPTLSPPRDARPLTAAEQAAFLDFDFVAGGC
Sequence of 363 human kinases (including Aurora A/B/C) (Homo sapiens, UniProt P32298) (P32298 whole entry): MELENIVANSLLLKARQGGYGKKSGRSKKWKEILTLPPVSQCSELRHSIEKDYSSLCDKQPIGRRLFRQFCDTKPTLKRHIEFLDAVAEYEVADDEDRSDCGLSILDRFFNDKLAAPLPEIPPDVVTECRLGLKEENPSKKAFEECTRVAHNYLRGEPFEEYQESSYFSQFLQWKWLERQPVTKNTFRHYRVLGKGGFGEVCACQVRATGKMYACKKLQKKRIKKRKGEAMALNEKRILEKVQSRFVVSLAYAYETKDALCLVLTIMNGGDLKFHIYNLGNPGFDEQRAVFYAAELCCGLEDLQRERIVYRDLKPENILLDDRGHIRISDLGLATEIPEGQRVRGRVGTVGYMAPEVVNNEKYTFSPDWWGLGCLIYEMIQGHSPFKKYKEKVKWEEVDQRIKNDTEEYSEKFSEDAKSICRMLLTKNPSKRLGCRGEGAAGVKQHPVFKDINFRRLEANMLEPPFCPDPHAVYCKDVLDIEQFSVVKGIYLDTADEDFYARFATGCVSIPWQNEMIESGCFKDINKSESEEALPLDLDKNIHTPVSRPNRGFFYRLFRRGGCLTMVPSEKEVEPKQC
Sequence of 363 human kinases (including Aurora A/B/C) (Homo sapiens, UniProt P07332) (P07332 whole entry): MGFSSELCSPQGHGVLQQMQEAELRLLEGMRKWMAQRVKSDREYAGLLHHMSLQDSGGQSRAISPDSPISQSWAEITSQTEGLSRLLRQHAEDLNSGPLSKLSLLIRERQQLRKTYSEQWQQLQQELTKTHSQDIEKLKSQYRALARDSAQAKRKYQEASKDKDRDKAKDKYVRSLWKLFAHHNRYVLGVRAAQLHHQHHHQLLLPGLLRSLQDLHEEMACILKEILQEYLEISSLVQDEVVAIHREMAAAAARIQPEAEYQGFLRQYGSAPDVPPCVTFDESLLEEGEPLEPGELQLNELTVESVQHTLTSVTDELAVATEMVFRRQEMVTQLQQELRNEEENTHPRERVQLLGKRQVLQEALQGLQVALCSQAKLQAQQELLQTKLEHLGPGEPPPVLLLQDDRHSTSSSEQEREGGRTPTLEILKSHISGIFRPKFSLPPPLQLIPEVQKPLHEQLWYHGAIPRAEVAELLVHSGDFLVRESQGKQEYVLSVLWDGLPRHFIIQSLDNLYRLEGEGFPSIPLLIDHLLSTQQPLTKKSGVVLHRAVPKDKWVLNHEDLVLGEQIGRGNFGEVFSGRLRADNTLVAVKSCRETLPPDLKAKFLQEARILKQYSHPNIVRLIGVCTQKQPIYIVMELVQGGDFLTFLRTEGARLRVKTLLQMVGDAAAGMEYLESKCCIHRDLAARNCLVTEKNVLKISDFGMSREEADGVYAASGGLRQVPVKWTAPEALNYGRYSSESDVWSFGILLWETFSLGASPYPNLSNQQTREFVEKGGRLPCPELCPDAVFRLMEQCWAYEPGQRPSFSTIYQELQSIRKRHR

Row | Compound | remaining activity at 0.1 µM [1] | remaining activity at 0.1 µM [2] | remaining activity at 0.1 µM [3] | remaining activity at 0.1 µM [4] | remaining activity at 0.1 µM [5] | remaining activity at 0.1 µM [6] | remaining activity at 0.1 µM [7] | remaining activity at 0.1 µM [8] | remaining activity at 0.1 µM [9] | remaining activity at 0.1 µM [10] | remaining activity at 0.1 µM [11] | remaining activity at 0.1 µM [12] | remaining activity at 0.1 µM [13] | remaining activity at 0.5 µM ([1]; 500 nM) | remaining activity at 0.5 µM ([2]; 500 nM) | remaining activity at 0.5 µM ([3]; 500 nM) | remaining activity at 0.5 µM ([4]; 500 nM) | remaining activity at 0.5 µM ([5]; 500 nM) | remaining activity at 0.5 µM ([6]; 500 nM) | remaining activity at 0.5 µM ([7]; 500 nM) | further results
1 | CCn1cc(-c2ccnc3[nH]c(-c4cccc(CN(C)C)c4)cc23)c(-c2ccc(NC(=O)N(C)C)cc2)n1 [GSK1070916] | 82.3% | 90% | 90.4% | 95.2% | 98% | 96.5% | 83.9% | 103% | 76.1% | 119% | 96% | 110% | 103% | – | – | – | – | – | – | – | –
2 | O=C(O)[C@]1(Cc2cccc(Nc3nccs3)n2)CC[C@@H](Oc2cccc(Cl)c2F)CC1 [MK-5108] | 93.7% | 96% | 86.7% | 96.7% | 61.8% | 101% | 15.8% | 96% | 21.8% | 99.8% | 89.5% | 108% | 99.8% | 63% | 73.7% | 67.2% | 92.9% | 29.3% | 100% | 1.62% | remaining activity at 0.5 µM ([8]; 500 nM): 115%; remaining activity at 0.5 µM ([9]; 500 nM): 9.68%; remaining activity at 0.5 µM ([10]; 500 nM): 111%; remaining activity at 0.5 µM ([11]; 500 nM): 70.3%; remaining activity at 0.5 µM ([12]; 500 nM): 104%; remaining activity at 0.5 µM ([13]; 500 nM): 97%
3 | O=C(c1cccc(Cl)c1F)N1CCN(Cc2cccc(Nc3nccs3)n2)CC1 [MK-8745] | – | – | – | – | – | – | – | – | – | – | – | – | – | 91.9% | 86% | 89.7% | 94.8% | 13.8% | 95.1% | 51.9% | % Enzyme Activity (relative to DMSO controls) ([1]; 500 nM): 90.37%; % Enzyme Activity (relative to DMSO controls) ([2]; 500 nM): 85.63%; % Enzyme Activity (relative to DMSO controls) ([3]; 500 nM): 88.70%; % Enzyme Activity (relative to DMSO controls) ([4]; 500 nM): 94.47%; % Enzyme Activity (relative to DMSO controls) ([5]; 500 nM): 13.45%; % Enzyme Activity (relative to DMSO controls) ([6]; 500 nM): 94.27%; % Enzyme Activity (relative to DMSO controls) ([7]; 500 nM): 50.10%; % Enzyme Activity (relative to DMSO controls) ([8]; 500 nM): 94.45%; remaining activity at 0.5 µM ([8]; 500 nM): 96.7%; % Enzyme Activity (relative to DMSO controls) ([9]; 500 nM): 71.49%; remaining activity at 0.5 µM ([9]; 500 nM): 73.2%; % Enzyme Activity (relative to DMSO controls) ([10]; 500 nM): 109.64%; remaining activity at 0.5 µM ([10]; 500 nM): 110%; % Enzyme Activity (relative to DMSO controls) ([11]; 500 nM): 88.72%; remaining activity at 0.5 µM ([11]; 500 nM): 89.7%; % Enzyme Activity (relative to DMSO controls) ([12]; 500 nM): 105.68%; remaining activity at 0.5 µM ([12]; 500 nM): 106%; % Enzyme Activity (relative to DMSO controls) ([13]; 500 nM): 89.27%; remaining activity at 0.5 µM ([13]; 500 nM): 90.3%
